Laboratory results published in paper PMC6576746, “Rational discovery of dual-indication multi-target PDE/Kinase inhibitor for precision anti-cancer therapy using structural systems pharmacology” (PLoS Computational Biology, 2019).

Assays:
Test in all cases: biochemical
Parameters in all cases: DiscoverX KinomeScan competition binding assay across human kinases; per cent of control at 10 and 100 uM
PLK2 = PLK2 (Homo sapiens, UniProt Q9NYY3); conditions: competition binding, % of control; read-out: Percent Control (100 uM Levosimendan)
Procedure, shortened: (§1)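 KinomeScan competition binding was run across a human kinase panel at 10 μM and 100 μM levosimendan. Results are %control = (test − positive control)/(negative control − positive control) × 100.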

[1] = biological target: T1, RSK4(Kin.Dom.2-C-terminal) (Homo sapiens, UniProt Q9UK32); conditions: competition binding, % of control
T1 construct: gene RPS6KA6; Kin.Dom.2-C-terminal
T1 sequence (Q9UK32 whole entry): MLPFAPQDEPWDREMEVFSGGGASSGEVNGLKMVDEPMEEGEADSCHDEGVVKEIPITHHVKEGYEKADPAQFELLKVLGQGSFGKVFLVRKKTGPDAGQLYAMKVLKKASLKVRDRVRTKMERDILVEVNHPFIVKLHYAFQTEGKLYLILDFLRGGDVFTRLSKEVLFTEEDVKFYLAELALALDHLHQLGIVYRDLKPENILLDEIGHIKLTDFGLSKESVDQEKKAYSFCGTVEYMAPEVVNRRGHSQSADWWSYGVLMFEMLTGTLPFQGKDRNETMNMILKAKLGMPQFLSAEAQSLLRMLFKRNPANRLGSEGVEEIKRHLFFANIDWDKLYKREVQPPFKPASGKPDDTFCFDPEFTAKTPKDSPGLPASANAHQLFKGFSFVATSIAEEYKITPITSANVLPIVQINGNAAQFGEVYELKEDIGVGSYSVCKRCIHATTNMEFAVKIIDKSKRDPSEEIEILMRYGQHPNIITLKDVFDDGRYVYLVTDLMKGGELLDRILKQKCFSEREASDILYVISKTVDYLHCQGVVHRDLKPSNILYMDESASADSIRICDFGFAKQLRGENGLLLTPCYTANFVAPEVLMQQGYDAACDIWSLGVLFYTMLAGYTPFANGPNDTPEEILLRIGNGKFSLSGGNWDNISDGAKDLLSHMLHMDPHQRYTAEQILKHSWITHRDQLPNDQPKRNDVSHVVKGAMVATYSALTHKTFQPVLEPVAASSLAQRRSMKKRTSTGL
Procedure, shortened: as §1

BMPR2 = BMPR2 (Homo sapiens, UniProt Q13873); conditions: competition binding, % of control; read-out: Percent Control (100 uM Levosimendan)
Procedure, shortened: as §1

CLK2 = CLK2 (Homo sapiens, UniProt P49760); conditions: competition binding, % of control; read-out: Percent Control (100 uM Levosimendan)
Sequence of CLK2 (P49760 whole entry): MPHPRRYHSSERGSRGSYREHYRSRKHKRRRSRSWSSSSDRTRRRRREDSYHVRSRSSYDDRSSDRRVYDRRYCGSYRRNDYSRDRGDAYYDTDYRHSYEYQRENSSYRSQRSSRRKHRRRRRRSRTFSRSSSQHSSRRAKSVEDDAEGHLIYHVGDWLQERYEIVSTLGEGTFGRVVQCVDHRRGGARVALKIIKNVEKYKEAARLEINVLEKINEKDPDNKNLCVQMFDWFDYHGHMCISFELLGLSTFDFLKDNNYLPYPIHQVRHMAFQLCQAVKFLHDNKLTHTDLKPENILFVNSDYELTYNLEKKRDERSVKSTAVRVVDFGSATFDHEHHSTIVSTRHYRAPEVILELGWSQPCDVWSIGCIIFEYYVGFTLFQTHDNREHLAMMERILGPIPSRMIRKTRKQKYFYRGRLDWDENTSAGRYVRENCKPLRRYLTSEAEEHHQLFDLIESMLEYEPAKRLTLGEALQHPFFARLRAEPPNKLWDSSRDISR
Procedure, shortened: as §1

NIM1 = biological target: T2, NIM1 (Homo sapiens, UniProt Q8IY84); conditions: competition binding, % of control; read-out: Percent Control (100 uM Levosimendan)
T2 construct: gene NIM1K
Procedure, shortened: as §1

LYN = LYN (Homo sapiens, UniProt P07948); conditions: competition binding, % of control; read-out: Percent Control (100 uM Levosimendan)
Sequence of LYN (P07948 whole entry): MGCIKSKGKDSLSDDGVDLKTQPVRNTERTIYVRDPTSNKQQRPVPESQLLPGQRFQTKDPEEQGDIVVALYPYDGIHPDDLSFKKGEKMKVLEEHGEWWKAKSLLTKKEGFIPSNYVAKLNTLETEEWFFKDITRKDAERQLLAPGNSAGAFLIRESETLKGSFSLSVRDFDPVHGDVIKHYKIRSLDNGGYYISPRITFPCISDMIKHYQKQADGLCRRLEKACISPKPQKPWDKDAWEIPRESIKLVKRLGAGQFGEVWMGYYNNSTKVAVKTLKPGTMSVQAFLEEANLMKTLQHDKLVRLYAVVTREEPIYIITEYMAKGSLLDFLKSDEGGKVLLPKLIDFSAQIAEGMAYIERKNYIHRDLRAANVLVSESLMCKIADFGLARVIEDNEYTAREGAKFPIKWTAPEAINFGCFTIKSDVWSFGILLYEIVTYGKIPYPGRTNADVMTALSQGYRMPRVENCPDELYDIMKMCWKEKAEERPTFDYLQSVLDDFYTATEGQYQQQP
Procedure, shortened: as §1

MARK2 = MARK2 (Homo sapiens, UniProt Q7KZI7); conditions: competition binding, % of control; read-out: Percent Control (100 uM Levosimendan)
Procedure, shortened: as §1

FAK = biological target: T3, FAK (Homo sapiens, UniProt Q05397); conditions: competition binding, % of control; read-out: Percent Control (100 uM Levosimendan)
T3 construct: gene PTK2
Procedure, shortened: as §1

MARK3 = MARK3 (Homo sapiens, UniProt P27448); conditions: competition binding, % of control; read-out: Percent Control (100 uM Levosimendan)
Procedure, shortened: as §1

PRKX = PRKX (Homo sapiens, UniProt P51817); conditions: competition binding, % of control; read-out: Percent Control (100 uM Levosimendan)
Procedure, shortened: as §1

CAMK2B = CAMK2B (Homo sapiens, UniProt Q13554); conditions: competition binding, % of control; read-out: Percent Control (100 uM Levosimendan)
Procedure, shortened: as §1

EPHA3 = EPHA3 (Homo sapiens, UniProt P29320); conditions: competition binding, % of control; read-out: Percent Control (100 uM Levosimendan)
Procedure, shortened: as §1

PRKCH = PRKCH (Homo sapiens, UniProt P24723); conditions: competition binding, % of control; read-out: Percent Control (100 uM Levosimendan)
Procedure, shortened: as §1

EGFR = EGFR (Homo sapiens, UniProt P00533); conditions: competition binding, % of control
Sequence of EGFR (P00533 whole entry): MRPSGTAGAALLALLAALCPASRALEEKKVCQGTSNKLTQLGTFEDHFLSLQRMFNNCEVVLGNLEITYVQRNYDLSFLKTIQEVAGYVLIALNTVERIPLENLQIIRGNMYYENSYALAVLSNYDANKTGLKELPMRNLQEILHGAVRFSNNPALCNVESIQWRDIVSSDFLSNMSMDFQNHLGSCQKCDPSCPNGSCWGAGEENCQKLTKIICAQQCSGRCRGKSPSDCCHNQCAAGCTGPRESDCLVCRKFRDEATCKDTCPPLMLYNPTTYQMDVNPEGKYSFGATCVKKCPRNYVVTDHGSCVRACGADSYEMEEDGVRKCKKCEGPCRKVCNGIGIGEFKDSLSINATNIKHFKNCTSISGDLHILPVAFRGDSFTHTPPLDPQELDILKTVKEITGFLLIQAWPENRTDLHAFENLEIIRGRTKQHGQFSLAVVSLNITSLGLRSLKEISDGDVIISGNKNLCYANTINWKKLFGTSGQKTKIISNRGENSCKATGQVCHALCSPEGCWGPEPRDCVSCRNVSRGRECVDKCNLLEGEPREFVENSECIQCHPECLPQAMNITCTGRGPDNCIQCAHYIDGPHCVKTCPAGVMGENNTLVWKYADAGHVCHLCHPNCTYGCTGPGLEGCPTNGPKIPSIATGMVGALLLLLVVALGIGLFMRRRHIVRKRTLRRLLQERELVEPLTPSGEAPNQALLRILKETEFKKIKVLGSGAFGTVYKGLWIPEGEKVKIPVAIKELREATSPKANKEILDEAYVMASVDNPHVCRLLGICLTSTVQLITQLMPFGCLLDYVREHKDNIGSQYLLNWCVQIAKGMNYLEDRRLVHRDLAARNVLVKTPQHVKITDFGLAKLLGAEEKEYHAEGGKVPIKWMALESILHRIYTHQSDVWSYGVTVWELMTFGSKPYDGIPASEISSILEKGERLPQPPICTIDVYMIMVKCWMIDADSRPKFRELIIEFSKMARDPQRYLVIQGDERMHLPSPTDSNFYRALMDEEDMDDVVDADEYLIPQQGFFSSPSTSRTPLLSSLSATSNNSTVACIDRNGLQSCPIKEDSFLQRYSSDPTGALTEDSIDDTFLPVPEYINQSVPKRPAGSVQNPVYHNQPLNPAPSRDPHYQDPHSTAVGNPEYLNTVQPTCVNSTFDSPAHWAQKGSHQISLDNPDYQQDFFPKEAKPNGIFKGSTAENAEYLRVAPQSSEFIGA
Procedure, shortened: as §1

PRKD2 = PRKD2 (Homo sapiens, UniProt Q9BZL6); conditions: competition binding, % of control; read-out: Percent Control (100 uM Levosimendan)
Procedure, shortened: as §1

CAMKK1 = CAMKK1 (Homo sapiens, UniProt Q8N5S9); conditions: competition binding, % of control
Sequence of CAMKK1 (Q8N5S9 whole entry): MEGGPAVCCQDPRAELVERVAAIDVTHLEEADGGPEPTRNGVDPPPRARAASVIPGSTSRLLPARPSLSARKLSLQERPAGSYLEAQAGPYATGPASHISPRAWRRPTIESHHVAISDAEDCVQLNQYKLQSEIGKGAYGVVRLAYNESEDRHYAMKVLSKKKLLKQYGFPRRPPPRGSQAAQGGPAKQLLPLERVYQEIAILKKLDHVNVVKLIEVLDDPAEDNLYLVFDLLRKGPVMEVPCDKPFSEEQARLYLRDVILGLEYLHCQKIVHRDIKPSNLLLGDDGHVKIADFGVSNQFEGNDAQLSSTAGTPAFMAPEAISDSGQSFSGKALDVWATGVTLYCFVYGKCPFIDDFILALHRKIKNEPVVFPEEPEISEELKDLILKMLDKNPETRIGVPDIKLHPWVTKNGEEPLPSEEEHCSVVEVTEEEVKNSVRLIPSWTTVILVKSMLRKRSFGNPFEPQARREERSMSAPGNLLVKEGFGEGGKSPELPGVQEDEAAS
Procedure, shortened: as §1

YANK3 = biological target: T4, YANK3 (Homo sapiens, UniProt Q86UX6); conditions: competition binding, % of control; read-out: Percent Control (100 uM Levosimendan)
T4 construct: gene STK32C
T4 sequence (Q86UX6 whole entry): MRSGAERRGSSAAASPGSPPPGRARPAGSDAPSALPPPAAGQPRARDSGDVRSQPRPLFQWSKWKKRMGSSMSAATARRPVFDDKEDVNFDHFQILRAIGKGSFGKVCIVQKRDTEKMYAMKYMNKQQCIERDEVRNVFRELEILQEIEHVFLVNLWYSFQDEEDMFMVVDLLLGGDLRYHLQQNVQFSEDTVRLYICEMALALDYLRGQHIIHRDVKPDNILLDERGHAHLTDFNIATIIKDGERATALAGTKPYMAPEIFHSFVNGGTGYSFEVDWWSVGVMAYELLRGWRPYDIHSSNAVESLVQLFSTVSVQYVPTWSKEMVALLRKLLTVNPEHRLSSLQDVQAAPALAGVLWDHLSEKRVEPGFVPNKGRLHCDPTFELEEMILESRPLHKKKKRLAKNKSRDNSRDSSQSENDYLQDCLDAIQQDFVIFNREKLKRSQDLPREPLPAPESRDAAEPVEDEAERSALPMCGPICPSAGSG
Procedure, shortened: as §1

PIP5K2C = biological target: T5, PIP5K2C (Homo sapiens, UniProt Q8TBX8); conditions: competition binding, % of control
T5 construct: gene PIP4K2C
T5 sequence (Q8TBX8 whole entry): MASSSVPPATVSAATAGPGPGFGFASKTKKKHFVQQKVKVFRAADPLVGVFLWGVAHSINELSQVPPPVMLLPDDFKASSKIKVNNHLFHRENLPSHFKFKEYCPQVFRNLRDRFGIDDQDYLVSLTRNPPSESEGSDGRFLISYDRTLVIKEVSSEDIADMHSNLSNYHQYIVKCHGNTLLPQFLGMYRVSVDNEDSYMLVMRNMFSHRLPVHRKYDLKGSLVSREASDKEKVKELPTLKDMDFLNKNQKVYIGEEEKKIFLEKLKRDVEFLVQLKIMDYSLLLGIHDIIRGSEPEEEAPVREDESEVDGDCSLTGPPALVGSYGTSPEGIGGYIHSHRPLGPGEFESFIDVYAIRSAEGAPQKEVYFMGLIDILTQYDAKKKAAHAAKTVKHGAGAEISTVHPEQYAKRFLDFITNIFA
Procedure, shortened: as §1

GRK1 = GRK1 (Homo sapiens, UniProt Q15835); conditions: competition binding, % of control; read-out: Percent Control (100 uM Levosimendan)
Sequence of GRK1 (Q15835 whole entry): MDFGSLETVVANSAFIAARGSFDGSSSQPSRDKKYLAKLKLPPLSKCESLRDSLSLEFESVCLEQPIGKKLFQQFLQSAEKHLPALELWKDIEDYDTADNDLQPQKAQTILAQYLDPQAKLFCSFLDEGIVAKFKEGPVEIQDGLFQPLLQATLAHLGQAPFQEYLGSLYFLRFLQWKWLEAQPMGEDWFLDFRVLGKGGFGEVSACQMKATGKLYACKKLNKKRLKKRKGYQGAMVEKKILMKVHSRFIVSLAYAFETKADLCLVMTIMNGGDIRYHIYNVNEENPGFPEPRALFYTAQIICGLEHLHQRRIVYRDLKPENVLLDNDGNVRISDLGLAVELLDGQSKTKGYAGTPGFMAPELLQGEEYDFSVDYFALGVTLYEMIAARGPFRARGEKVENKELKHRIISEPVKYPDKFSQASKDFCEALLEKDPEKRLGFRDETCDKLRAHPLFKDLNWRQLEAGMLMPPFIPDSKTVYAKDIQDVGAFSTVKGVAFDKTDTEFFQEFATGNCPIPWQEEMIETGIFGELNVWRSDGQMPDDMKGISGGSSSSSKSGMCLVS
Procedure, shortened: as §1

[2] = read-out: Percent Control (10 uM Levosimendan)
[3] = read-out: Percent Control (100 uM Levosimendan)

- remaining binding at 100 µM (PLK2): 72%
- remaining binding at 10 µM [1, 2]: 82%
- remaining binding at 100 µM [1, 3]: 31%
- remaining binding at 100 µM (BMPR2): 100%
- remaining binding at 100 µM (CLK2): 69%
- remaining binding at 100 µM (NIM1): 65%
- remaining binding at 100 µM (LYN): 69%
- remaining binding at 100 µM (MARK2): 95%
- remaining binding at 100 µM (FAK): 89%
- remaining binding at 100 µM (MARK3): 95%
- remaining binding at 100 µM (PRKX): 76%
- remaining binding at 100 µM (CAMK2B): 90%
- remaining binding at 100 µM (EPHA3): 97%
- remaining binding at 100 µM (PRKCH): 69%
- remaining binding at 10 µM (EGFR; [2]): 78%
- remaining binding at 100 µM (EGFR; [3]): 28%
- remaining binding at 100 µM (PRKD2): 75%
- remaining binding at 10 µM (CAMKK1; [2]): 82%
- remaining binding at 100 µM (CAMKK1; [3]): 51%
- remaining binding at 100 µM (YANK3): 73%
- remaining binding at 10 µM (PIP5K2C; [2]): 52%
- remaining binding at 100 µM (PIP5K2C; [3]): 5.9%
- remaining binding at 100 µM (GRK1): 67%
Compound: C[C@@H]1CC(=O)NN=C1c1ccc(NN=C(C#N)C#N)cc1 [levosimendan]
